Laboratory results reported in patent US11691962B2 (eXIthera Pharmaceuticals, Inc., priority 2018, dated 2023).

Experiments:
Thrombin = Thrombin (Homo sapiens (Human), UniProt P00734); test: Dose response assay for protease inhibitors: thrombin; type: biochemical; conditions: selectivity, thrombin over Factor XIa
How it was run: (§1)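 Fluorogenic AMC-peptide cleavage in 20 mM Hepes pH 7.4, 150 mM NaCl, 0.02% Tween 20; 100 μM stock substrate dilution (Glp-Pro-Arg-AMC for thrombin/trypsin; Pro-Phe-Arg-AMC or Boc-Leu-Gly-Arg-AMC for Factor Xa). Enzyme diluted to 0.5 nM, added last to two-fold compound series; kinetic read at 30° C, 30 min (Factor Xa 60 min); IC50 fitted.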

Trypsin = test: Dose response assay for protease inhibitors: trypsin; type: biochemical; conditions: selectivity, trypsin over Factor XIa
How it was run: as §1

Factor Xa = Factor Xa (Homo sapiens (Human), UniProt P00742); test: Dose response assay for protease inhibitors: Factor Xa; type: biochemical; conditions: selectivity, Factor Xa over Factor XIa
Sequence of Factor Xa (P00742 235-488): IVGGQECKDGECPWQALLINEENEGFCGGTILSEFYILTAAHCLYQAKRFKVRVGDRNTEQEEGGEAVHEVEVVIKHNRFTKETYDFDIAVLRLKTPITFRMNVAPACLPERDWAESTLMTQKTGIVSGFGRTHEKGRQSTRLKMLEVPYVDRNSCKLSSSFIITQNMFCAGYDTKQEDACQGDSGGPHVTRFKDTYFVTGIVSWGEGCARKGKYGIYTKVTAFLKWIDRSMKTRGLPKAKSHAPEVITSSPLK
Sequence of Factor Xa (P00742 41-179 partner): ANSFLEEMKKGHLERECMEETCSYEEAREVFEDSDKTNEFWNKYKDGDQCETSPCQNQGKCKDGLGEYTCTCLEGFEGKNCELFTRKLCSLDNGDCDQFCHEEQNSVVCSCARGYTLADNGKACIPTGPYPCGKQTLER
How it was run: as §1

[1] = Caco-2 cell permeability assay; type: in vitro ADME, human; conditions: human, 37° C.; for Papp A→B at 60 min, 10 μM: Caco-2, apical to basolateral; for Papp B→A at 40 min, 10 μM: Caco-2, basolateral to apical
How it was run: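 Caco-2 monolayers (days 21-25 post-seeding) received 10 μM compound in HBSS-MES pH 6.5 or HBSS-HEPES pH 7.4 (1% DMSO) at 37 °C, for 60 min A-B or 40 min B-A. Donor and receiver samples were quantified by HPLC-MS/MS (SRM), and Papp and recovery were calculated.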

[2] = Aqueous solubility in PBS by HPLC-UV/VIS; type: physicochemical; conditions: phosphate buffered saline, aqueous buffer, kinetic from dmso stock; PBS pH 7.4, 2% DMSO, 24 h at room temperature
How it was run: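 Compound diluted to 200 μM in PBS pH 7.4 from DMSO stock (2% DMSO final), incubated 24 h at room temperature, then centrifuged. Supernatant analysed by HPLC-UV/VIS; solubility (μM) from principal-peak area versus a 200 μM calibration standard. Range approximately 0.5–200 μM.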

Structure (SMILES)	Ratio: Thrombin/FXIa (Thrombin)	Ratio: Trypsin/FXIa (Trypsin)	Ratio: FXa/FXIa (Factor Xa)	Papp A→B at 60 min, 10 μM [1] [×10⁻⁶ cm/s]	Papp B→A at 40 min, 10 μM [1] [×10⁻⁶ cm/s]	solubility at 24 h [2] [µM]
CN(C(=O)[C@@H]1[C@@H](Cc2ccnc(N)c2)C(=O)N1C(=O)N[C@@H](C1CCCCC1)C1CC1)c1ccn(C)n1 [Compound 1-58, (2S,3R)-3-((2-aminopyridin-4-yl)methyl)-N2-(1-methyl-1H-pyrazol-3-yl)-N1-((R)-cyclohexyl-cyclopropylmethyl)-N2-methyl-4-oxoazetidine-1,2-dicarboxamide]	H (“H” indicates 101-1000)	G (“G” indicates 1-100)	I (“I” indicates > 500)	11 to 30	11 to 30	> 100
CC[C@@H](NC(=O)N1C(=O)[C@H](Cc2cc(C)nc(NC)c2)[C@H]1C(=O)N(C)c1ccnn1C)C1CCCCC1 [Compound 1-62, (2S,3R)-3-((2-methylamino-6-methylpyridin-4-yl)methyl)-N2-(1-methyl-1H-pyrazol-5-yl)-N1-((R)-1-cyclohexylpropyl)-N2-methyl-4-oxoazetidine-1,2-dicarboxamide]	I (“I” indicates > 500)	G (“G” indicates 1-100)	I (“I” indicates > 500)	11 to 30	11 to 30	> 100
CC[C@@H](NC(=O)N1C(=O)[C@H](Cc2ccnc(N)c2)[C@H]1C(=O)N(C)c1ccnn1C)C1CCCCC1 [Compound 1-63, (2S,3R)-3-((2-aminopyridin-4-yl)methyl)-N2-(1-methyl-1H-pyrazol-5-yl)-N1-((R)-1-cyclohexylpropyl)-N2-methyl-4-oxoazetidine-1,2-dicarboxamide]	I (“I” indicates > 500)	G (“G” indicates 1-100)	I (“I” indicates > 500)	11 to 30	31 to 50	> 100
CC[C@@H](NC(=O)N1C(=O)[C@H](Cc2cc(C)nc(N)c2)[C@H]1C(=O)N(C)c1ccnn1C)C1CCCCC1 [Compound 1-67, (2S,3R)-3-((2-amino-6-methylpyridin-4-yl)methyl)-N2-(1-methyl-1H-pyrazol-5-yl)-N1-((R)-1-cyclohexylpropyl)-N2-methyl-4-oxoazetidine-1,2-dicarboxamide]	I (“I” indicates > 500)	G (“G” indicates 1-100)	I (“I” indicates > 500)	11 to 30	31 to 50	> 100
CC[C@@H](NC(=O)N1C(=O)[C@H](Cc2ccnc(N)c2)[C@H]1C(=O)N(C)c1nccn1C)c1cccc(C)c1 [Compound 1-80, (2S,3R)-3-((2-aminopyridin-4-yl)methyl)-N2-(1-methyl-1H-imidazol-2-yl)-N1-((R)-1-(3-methylphenyl)propyl)-N2-methyl-4-oxoazetidine-1,2-dicarboxamide]	H (“H” indicates 101-1000)	G (“G” indicates 1-100)	I (“I” indicates > 500)	< 10	31 to 50	> 100
CC[C@@H](NC(=O)N1C(=O)[C@H](Cc2ccnc(N)c2)[C@H]1C(=O)N(C)c1nccn1C)c1ccc(C)nc1 [Compound 1-81, (2S,3R)-3-((2-aminopyridin-4-yl)methyl)-N2-(1-methyl-1H-imidazol-2-yl)-N1-((R)-1-(6-methylpyridin-3-yl)propyl)-N2-methyl-4-oxoazetidine-1,2-dicarboxamide]	H (“H” indicates 101-1000)	G (“G” indicates 1-100)	I (“I” indicates > 500)	< 10	< 10	> 100
CC[C@@H](NC(=O)N1C(=O)[C@H](Cc2ccnc(N)c2)[C@H]1C(=O)N(C)c1nccn1C)c1ccccc1Cl [Compound 1-83]	H (“H” indicates 101-1000)	G (“G” indicates 1-100)	I (“I” indicates > 500)	< 10	> 50	> 100
CC[C@@H](NC(=O)N1C(=O)[C@H](Cc2ccnc(N)c2)[C@H]1C(=O)N(C)c1cnn(C)c1)c1ccccc1 [Compound 1-88, (2S,3R)-3-((2-aminopyridin-4-yl)methyl)-N2-(1-methyl-1H-pyrazol-4-yl)-N1-((R)-1-phenylpropyl)-N2-methyl-4-oxoazetidine-1,2-dicarboxamide]	G (“G” indicates 1-100)	G (“G” indicates 1-100)	H (“H” indicates 101-1000)	< 10	11 to 30	> 100
CC[C@@H](NC(=O)N1C(=O)[C@H](Cc2cc(C)nc(N)c2)[C@H]1C(=O)N(C)c1ccn(C)n1)c1cccc(Cl)c1 [Compound 1-89, (2S,3R)-3-((2-amino-6-methylpyridin-4-yl)methyl)-N2-(1-methyl-1H-pyrazol-3-yl)-N1-((R)-1-(3-chlorophenyl)propyl)-N2-methyl-4-oxoazetidine-1,2-dicarboxamide]	H (“H” indicates 101-1000)	G (“G” indicates 1-100)	I (“I” indicates > 500)	< 10	11 to 30	> 100
CC[C@@H](NC(=O)N1C(=O)[C@H](Cc2ccnc(N)c2)[C@H]1C(=O)N(C)c1cn(C)cn1)c1ccccc1 [Compound 1-90, (2S,3R)-3-((2-aminopyridin-4-yl)methyl)-N2-(1-methyl-1H-imidazol-4-yl)-N1-((R)-1-phenylpropyl)-N2-methyl-4-oxoazetidine-1,2-dicarboxamide]	H (“H” indicates 101-1000)	G (“G” indicates 1-100)	I (“I” indicates > 500)	< 10	11 to 30	> 100
CC[C@@H](NC(=O)N1C(=O)[C@H](Cc2ccnc(N)c2)[C@H]1C(=O)N(C)c1ccn(C)n1)c1cccc(Cl)c1 [Compound 1-91, (2S,3R)-3-((2-aminopyridin-4-yl)methyl)-N2-(1-methyl-1H-pyrazol-3-yl)-N1-((R)-1-(3-chlorophenyl)propyl)-N2-methyl-4-oxoazetidine-1,2-dicarboxamide]	H (“H” indicates 101-1000)	G (“G” indicates 1-100)	H (“H” indicates 101-1000)	< 10	11 to 30	> 100
CC[C@@H](NC(=O)N1C(=O)[C@H](Cc2ccnc(N)c2)[C@H]1C(=O)N(C)c1ccnn1C)c1ccccc1 [Compound 1-92, (2S,3R)-3-((2-aminopyridin-4-yl)methyl)-N2-(1-methyl 1H-pyrazol-5-yl)-N1-((R)-1-phenylpropyl)-N2-methyl-4-oxoazetidine-1,2-dicarboxamide]	H (“H” indicates 101-1000)	G (“G” indicates 1-100)	I (“I” indicates > 500)	< 10	31 to 50	> 100
CC[C@@H](NC(=O)N1C(=O)[C@H](Cc2cc(C)nc(N)c2)[C@H]1C(=O)N(C)c1nccn1C)c1cc(F)ccc1F [Compound 1-137, (2S,3R)-3-((2-amino-6-methylpyridin-4-yl)methyl)-N2-(1-methyl-1H-imidazol-2-yl)-N1-((R)-1-(2,5-difluorophenyl)propyl)-N2-methyl-4-oxoazetidine-1,2-dicarboxamide]	H (“H” indicates 101-1000)	G (“G” indicates 1-100)	I (“I” indicates > 500)	< 10	11 to 30	> 100
